# Test results reported in patent US12077503B2, “Substituted cyclic amides and their use as herbicides” (FMC CORPORATION, priority 2015, dated 2024).
# Legend:
# Assay type in all cases: in vivo
# [1] = system: Galium (catchweed bedstraw, Galium aparine); experiment: Test A postemergence; conditions: Galium, post-emergence, 240 h, Postemergence, read-out: Galium plant response rating (0 to 100 scale)
# How it was run: (§1)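 Ratings of 0 (no effect) to 100 (complete control) come from visual comparison with untreated controls roughly 10 d after treatment. Test chemicals, formulated in a non-phytotoxic solvent mixture with surfactant, were applied either as a preemergence directed soil spray on seeded soil or postemergence to one- to two-leaf plants 2 to 10 cm tall.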
# [2] = system: barnyardgrass (Echinochloa crus-galli); experiment: Test A postemergence; conditions: Echinochloa crus-galli, post-emergence, 240 h, Postemergence
# How it was run: as §1
# [3] = system: pigweed (Amaranthus retroflexus); experiment: Test A postemergence; conditions: Amaranthus retroflexus, post-emergence, 240 h, Postemergence, read-out: Pigweed plant response rating (0 to 100 scale)
# How it was run: as §1
# [4] = system: Kochia (Kochia scoparia); experiment: Test A postemergence; conditions: Bassia scoparia, post-emergence, 240 h, Postemergence, read-out: Kochia plant response rating (0 to 100 scale)
# How it was run: as §1
# [5] = system: wheat (Triticum aestivum); experiment: Test A postemergence; conditions: Triticum aestivum, post-emergence, 240 h, Postemergence, read-out: Wheat plant response rating (0 to 100 scale)
# How it was run: as §1
# [6] = system: giant foxtail (Setaria faberii); experiment: Test A postemergence; conditions: Setaria faberi, post-emergence, 240 h, Postemergence, read-out: Foxtail, Giant plant response rating (0 to 100 scale)
# How it was run: as §1
# [7] = system: ryegrass, Italian (Italian ryegrass, Lolium multiflorum); experiment: Test A postemergence; conditions: Lolium multiflorum, post-emergence, 240 h, Postemergence, read-out: Ryegrass, Italian plant response rating (0 to 100 scale)
# How it was run: as §1
# [8] = system: corn (Zea mays); experiment: Test A postemergence; conditions: Zea mays, post-emergence, 240 h, Postemergence, read-out: Corn plant response rating (0 to 100 scale)
# How it was run: as §1
# [9] = system: ragweed (common ragweed, Ambrosia elatior); experiment: Test A postemergence; conditions: Ambrosia artemisiifolia, post-emergence, 240 h, Postemergence, read-out: Ragweed plant response rating (0 to 100 scale)
# How it was run: as §1
# [10] = system: blackgrass (Alopecurus myosuroides); experiment: Test A postemergence; conditions: Alopecurus myosuroides, post-emergence, 240 h, Postemergence, read-out: Blackgrass plant response rating (0 to 100 scale)
# How it was run: as §1
# [11] = system: barnyardgrass (Echinochloa crus-galli); experiment: Test A preemergence; conditions: Echinochloa crus-galli, pre-emergence, 240 h, 0 to 100 scale where 0 is no effect and 100 is complete control, read-out: Barnyardgrass plant response rating
# How it was run: as §1
# [12] = system: pigweed (Amaranthus retroflexus); experiment: Test A preemergence; conditions: Amaranthus retroflexus, pre-emergence, 240 h, 0 to 100 scale where 0 is no effect and 100 is complete control, read-out: Pigweed plant response rating
# [13] = system: Kochia (Kochia scoparia); experiment: Test A preemergence; conditions: Bassia scoparia, pre-emergence, 240 h, 0 to 100 scale where 0 is no effect and 100 is complete control, read-out: Kochia plant response rating
# How it was run: as §1
# [14] = system: giant foxtail (Setaria faberii); experiment: Test A preemergence; conditions: Setaria faberi, pre-emergence, 240 h, 0 to 100 scale where 0 is no effect and 100 is complete control, read-out: Foxtail, Giant plant response rating
# How it was run: as §1
# [15] = system: ryegrass, Italian (Italian ryegrass, Lolium multiflorum); experiment: Test A preemergence; conditions: Lolium multiflorum, pre-emergence, 240 h, 0 to 100 scale where 0 is no effect and 100 is complete control, read-out: Ryegrass, Italian plant response rating
# How it was run: as §1
# [16] = system: ragweed (common ragweed, Ambrosia elatior); experiment: Test A preemergence; conditions: Ambrosia artemisiifolia, pre-emergence, 240 h, 0 to 100 scale where 0 is no effect and 100 is complete control, read-out: Ragweed plant response rating
# How it was run: as §1
# [17] = system: sedge, umbrella (small-flower umbrella sedge, Cyperus difformis); experiment: Test B flooded paddy test; conditions: Cyperus difformis, 250 g ai/ha, Flood; 0 to 100 scale where 0 is no effect and 100 is complete control; read-out: Sedge, Umbrella plant response rating
# How it was run: (§2)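 Rating scale 0–100 (visual, vs untreated controls) after a 13–15 d greenhouse period; application to the flood layer, 3 cm above soil and maintained; plants at 2-leaf stage when treated.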
# [18] = system: barnyardgrass (Echinochloa crus-galli); experiment: Test B flooded paddy test; conditions: Echinochloa crus-galli, 250 g ai/ha, Flood; 0 to 100 scale where 0 is no effect and 100 is complete control; read-out: Barnyardgrass plant response rating
# How it was run: as §2
# [19] = system: rice (Oryra sativa); experiment: Test B flooded paddy test; conditions: Oryza sativa, 250 g ai/ha, Flood; 0 to 100 scale where 0 is no effect and 100 is complete control; read-out: Rice plant response rating
# How it was run: as §2
# [20] = system: ducksalad (Heteranthera limosa); experiment: Test B flooded paddy test; conditions: Heteranthera limosa, 250 g ai/ha, Flood; 0 to 100 scale where 0 is no effect and 100 is complete control; read-out: Ducksalad plant response rating
# How it was run: as §2
# [21] = 125 g ai/ha, visual rating about 10 d after treatment
# [22] = 31 g ai/ha, 0 is no effect, 100 is complete control
# [23] = 125 g ai/ha, preemergence, visual injury rating, approximately 10 d
smiles,measurement,setting,value
O=C1NC[C@H](c2cccc(C(F)(F)F)c2)[C@H]1C(=O)Nc1ccccc1-n1cncn1 [Compound 1290],pest or weed control at 125 g/ha,[1]; [21],0%
same,pest or weed control at 31 g/ha,[1]; [22],0%
same,pest or weed control at 125 g/ha,"[2]; 125 g ai/ha, visual rating about 10 d after treatment, read-out: Barnyardgrass plant response rating (0 to 100 scale, 0 no effect, 100 complete control)",0%
same,pest or weed control at 31 g/ha,"[2]; 31 g ai/ha, 0 is no effect, 100 is complete control, read-out: Barnyardgrass plant response rating (0 to 100 scale)",0%
same,pest or weed control at 125 g/ha,[3]; [21],0%
same,pest or weed control at 31 g/ha,[3]; [22],0%
same,pest or weed control at 125 g/ha,[4]; [21],0%
same,pest or weed control at 31 g/ha,[4]; [22],0%
same,plant injury at 125 g/ha,[5]; [21],0%
same,plant injury at 31 g/ha,[5]; [22],0%
same,pest or weed control at 125 g/ha,[6]; [21],0%
same,pest or weed control at 31 g/ha,[6]; [22],0%
same,pest or weed control at 125 g/ha,[7]; [21],0%
same,pest or weed control at 31 g/ha,[7]; [22],0%
same,plant injury at 125 g/ha,[8]; [21],0%
same,plant injury at 31 g/ha,[8]; [22],0%
same,pest or weed control at 125 g/ha,[9]; [21],0%
same,pest or weed control at 31 g/ha,[9]; [22],0%
same,pest or weed control at 125 g/ha,[10]; [21],0%
same,pest or weed control at 31 g/ha,[10]; [22],0%
same,pest or weed control at 31 g/ha,"[11]; 31 g ai/ha, Preemergence",0%
same,pest or weed control at 125 g/ha,[11]; [23],0%
same,pest or weed control at 31 g/ha,"[12]; 31 g ai/ha, Preemergence",0%
same,pest or weed control at 125 g/ha,[12]; [23],0%
same,pest or weed control at 31 g/ha,"[13]; 31 g ai/ha, Preemergence",0%
same,pest or weed control at 125 g/ha,[13]; [23],0%
same,pest or weed control at 31 g/ha,"[14]; 31 g ai/ha, Preemergence",0%
same,pest or weed control at 125 g/ha,[14]; [23],0%
same,pest or weed control at 31 g/ha,"[15]; 31 g ai/ha, Preemergence",0%
same,pest or weed control at 125 g/ha,[15]; [23],0%
same,pest or weed control at 31 g/ha,"[16]; 31 g ai/ha, Preemergence",0%
same,pest or weed control at 125 g/ha,[16]; [23],0%
same,pest or weed control at 250 g/ha,[17],0%
same,pest or weed control at 250 g/ha,[18],0%
same,pest or weed control at 250 g/ha,[19],10%
same,pest or weed control at 250 g/ha,[20],0%
